Results as given in patent US6706663B2, “Herbicidal 3-heterocyclic substituted benzisothiazole and benzisoxazole compounds” (Wyeth, priority 2000, dated 2004).

Legend:
[1] = system: SAGPY (Sagittaria pygmaea); assay: Flooded paddy, preemergence weed control; assay type: in vivo, L.; details: rated 3-4 weeks after treatment, 0-9 rating scale
Summary of the method: (§1)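 Seeds or propagating organs were sown in the top 0.5 cm of silt loam soil, flooded, and the water kept 1.5 to 3 cm above the soil surface throughout. Plants were grown in the greenhouse and rated visually on a 0-9 scale against a control.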

CYPIR (Cyperus iria) = assay: Flooded paddy, preemergence weed control; assay type: in vivo; details: rated 3-4 weeks after treatment, 0-9 rating scale
Summary of the method: as §1

[2] = system: ECHORC (Echinochloa oryzoides); assay: Flooded paddy, preemergence weed control; assay type: in vivo, Echinochloa oryzoides (Ard.) Fritsch.; details: rated 3-4 weeks after treatment, 0-9 rating scale
Summary of the method: as §1

[3] = system: GLXMAW (Soybean, Williams); assay: Preemergence herbicidal evaluation; assay type: in vivo, Glycine max, (L.) Merr. cv Williams; details: preemergence, rated 4-5 weeks after treatment
ZEAMX (Corn, Field) = assay: Postemergence herbicidal evaluation; assay type: in vivo, Zea mays, L.
Summary of the method: (§2)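 Seedlings grown for about two weeks were sprayed postemergence and then kept under standard greenhouse care. Injury was rated visually 4–5 weeks after treatment on a 0–9 scale against untreated controls, and ratings from repeat tests were averaged.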

ORYSAT (Rice, Tebonnet) [4] = assay: Preemergence herbicidal evaluation; assay type: in vivo, Oryza sativa, (L.) Tebonnet; details: preemergence, rated 4-5 weeks after treatment
ORYSAT (Rice, Tebonnet) [5] = assay: Postemergence herbicidal evaluation; assay type: in vivo, Oryza sativa, (L.) Tebonnet
Summary of the method: as §2

[6] = system: AMBEL (Ambrosia artemisifolia); assay: Postemergence herbicidal evaluation; assay type: in vivo, L.
Summary of the method: as §2

[7] = system: CHEAL (Chenopodium album); assay: Postemergence herbicidal evaluation; assay type: in vivo, L.
Summary of the method: as §2

[8] = system: CASOB (Cassia obtusifolia); assay: Postemergence herbicidal evaluation; assay type: in vivo, L.
Summary of the method: as §2

[9] = system: IPOHE (Ipomoea hederacea); assay: Preemergence herbicidal evaluation; assay type: in vivo, (L.) Jacq.; details: preemergence, rated 4-5 weeks after treatment
[10] = system: TRZAWR (Wheat, Winter, cv Riband); assay: Preemergence herbicidal evaluation; assay type: in vivo, Triticum aestivum; details: preemergence, rated 4-5 weeks after treatment
Summary of the method: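 Seeds mixed with potting soil were planted atop about one inch of soil, then sprayed with test compound in aqueous acetone. Cups were kept in the greenhouse and rated visually 4–5 weeks after treatment on a 0–9 scale against untreated control.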

[11] = system: ECHCG (Echinochloa crus-galli); assay: Postemergence herbicidal evaluation; assay type: in vivo, (L.) Beau
Summary of the method: as §2

Structure (SMILES)	herbicidal rating, SAGPY ([1]; rate 0.0320 kg/ha)	herbicidal rating, SAGPY ([1]; rate 0.1250 kg/ha)	herbicidal rating, CYPIR (CYPIR (Cyperus iria); rate 0.0320 kg/ha)	herbicidal rating, CYPIR (CYPIR (Cyperus iria); rate 0.1250 kg/ha)	herbicidal rating, ECHORC ([2]; rate 0.0320 kg/ha)	herbicidal rating, ECHORC ([2]; rate 0.1250 kg/ha)	GLXMAW preemergence herbicidal rating ([3]; Rate 0.0620 kg/ha)	GLXMAW preemergence herbicidal rating ([3]; Rate 0.1250 kg/ha)	GLXMAW preemergence herbicidal rating ([3]; Rate 0.2500 kg/ha)	Postemergence herbicidal rating, ZEAMX (ZEAMX (Corn, Field); rate 0.0320 kg/ha)	Postemergence herbicidal rating, ZEAMX (ZEAMX (Corn, Field); rate 0.0620 kg/ha)	ORYSAT preemergence herbicidal rating (ORYSAT (Rice, Tebonnet) [4]; Rate 0.0620 kg/ha)	ORYSAT preemergence herbicidal rating (ORYSAT (Rice, Tebonnet) [4]; Rate 0.1250 kg/ha)	ORYSAT preemergence herbicidal rating (ORYSAT (Rice, Tebonnet) [4]; Rate 0.2500 kg/ha)	Postemergence herbicidal rating, ORYSAT (ORYSAT (Rice, Tebonnet) [5]; rate 0.0320 kg/ha)	Postemergence herbicidal rating, ORYSAT (ORYSAT (Rice, Tebonnet) [5]; rate 0.0620 kg/ha)	Postemergence herbicidal rating, AMBEL ([6]; rate 0.0320 kg/ha)	Postemergence herbicidal rating, AMBEL ([6]; rate 0.0620 kg/ha)	Postemergence herbicidal rating, CHEAL ([7]; rate 0.0320 kg/ha)	Postemergence herbicidal rating, CHEAL ([7]; rate 0.0620 kg/ha)	other results
CCOC(=O)C1CS[C@H](c2nsc3ccc(-n4c(=O)cc(C(F)(F)F)n(C)c4=O)cc23)N1 (stereo partly drawn) [Compound 2, ethyl (R)-2-[5-[3,6-dihydro-3-methyl-2,6-dioxo-4-(trifluoromethyl)-1(2H)-pyrimidinyl]-1,2-benzisothiazol-3-yl]-4-thiazolidinecarboxylate]	0.0	0.0	0.0	2.0	0.0	2.0	5.5	8.0	8.0	7.0	7.0	3.0	6.0	7.0	5.0	6.5	7.0	9.0	9.0	9.0	Postemergence herbicidal rating, CASOB ([8]; rate 0.0320 kg/ha): 4.0; Postemergence herbicidal rating, CASOB ([8]; rate 0.0620 kg/ha): 4.0; IPOHE preemergence herbicidal rating ([9]; Rate 0.0620 kg/ha): 9.0; IPOHE preemergence herbicidal rating ([9]; Rate 0.1250 kg/ha): 9.0; IPOHE preemergence herbicidal rating ([9]; Rate 0.2500 kg/ha): 9.0; TRZAWR preemergence herbicidal rating ([10]; Rate 0.0620 kg/ha): 2.0; TRZAWR preemergence herbicidal rating ([10]; Rate 0.1250 kg/ha): 5.0; TRZAWR preemergence herbicidal rating ([10]; Rate 0.2500 kg/ha): 7.0; Postemergence herbicidal rating, ECHCG ([11]; rate 0.0320 kg/ha): 3.0; Postemergence herbicidal rating, ECHCG ([11]; rate 0.0620 kg/ha): 4.0
Cn1c(C(F)(F)F)cc(=O)n(-c2ccc3snc(-c4cccs4)c3c2)c1=O [Compound 3, 1-methyl-3-[3-(2-thienyl)-1,2-benzisothiazol-5-yl]-6-(trifluoromethyl)uracil]	1.0	5.5	8.5	9.0	8.0	9.0	5.5	9.0	9.0	5.0	5.5	6.0	5.0	5.0	3.0	4.0	9.0	9.0	9.0	9.0	herbicidal rating, SAGPY ([1]; rate 0.0080 kg/ha): 0.0; herbicidal rating, CYPIR (CYPIR (Cyperus iria); rate 0.0080 kg/ha): 0.0; herbicidal rating, ECHORC ([2]; rate 0.0080 kg/ha): 2.0; Postemergence herbicidal rating, ZEAMX (ZEAMX (Corn, Field); rate 0.1250 kg/ha): 6.5; Postemergence herbicidal rating, ORYSAT (ORYSAT (Rice, Tebonnet) [5]; rate 0.1250 kg/ha): 4.5; Postemergence herbicidal rating, AMBEL ([6]; rate 0.1250 kg/ha): 9.0; Postemergence herbicidal rating, CHEAL ([7]; rate 0.1250 kg/ha): 9.0; Postemergence herbicidal rating, CASOB ([8]; rate 0.0320 kg/ha): 4.0; Postemergence herbicidal rating, CASOB ([8]; rate 0.0620 kg/ha): 5.0; Postemergence herbicidal rating, CASOB ([8]; rate 0.1250 kg/ha): 9.0; IPOHE preemergence herbicidal rating ([9]; Rate 0.0620 kg/ha): 9.0; IPOHE preemergence herbicidal rating ([9]; Rate 0.1250 kg/ha): 9.0; IPOHE preemergence herbicidal rating ([9]; Rate 0.2500 kg/ha): 9.0; TRZAWR preemergence herbicidal rating ([10]; Rate 0.0620 kg/ha): 4.0; TRZAWR preemergence herbicidal rating ([10]; Rate 0.1250 kg/ha): 5.0; TRZAWR preemergence herbicidal rating ([10]; Rate 0.2500 kg/ha): 6.0; Postemergence herbicidal rating, ECHCG ([11]; rate 0.0320 kg/ha): 2.0; Postemergence herbicidal rating, ECHCG ([11]; rate 0.0620 kg/ha): 3.0; Postemergence herbicidal rating, ECHCG ([11]; rate 0.1250 kg/ha): 4.0
